Laboratory results reported in patent US20170027936A1, “ABL1 INHIBITOR FOR TREATING AND PREVENTING OCULAR NEOVASCULARISATION” (UCL BUSINESS PLC, priority 2014, published 2017).
Entries after “also recorded” stand apart in the source; their conditions may differ.

Legend:
[1] = system: BCR-ABL-expressing Ba/F3 and bone marrow cells; conditions: murine xenograft models of leukaemia; cited from earlier work
PXN Y118 phosphorylation = PXN Y118 phosphorylation in HDMEC plated on FN (immunofluorescence, immunoblotting); type: cell-based, human; conditions: 10 μM Imatinib 30 min before and during plating on FN, versus vehicle
Protocol: (§1) (A-C) ABL1 kinase activity is essential for PXN phosphorylation. […] In (A), pPXN Y118 (green) is shown together with phalloidin (red) and DAPI (blue) on the left hand side and as single channel in grey scale on the right hand side; scale bar 20 μm. pPXN pixel intensity was quantified in (B) and expressed as fold change in knockdown cells at the indicated time points relative to control cells at 0 min; mean±SEM of four independent experiments.
(§2) Human microvascular dermal EC (HDMEC; Promocell, UK) and human umbilical vein EC (HUVEC; Promocell) were cultured in standard conditions and transfected with Lipofectamine RNAIMAX (Life Technologies). Primary mouse lung EC (MLEC) were isolated from mice between one and two months of age by magnetic-activated cell sorting (MACS) with PECAM antibodies (BD Biosciences, UK). […] In some experiments, cells were stimulated with VEGF165 50 ng/ml for the indicated times.
(§3) Immunofluorescence staining of HDMEC and p6 mouse retinas was analysed with a L5M710 laser scanning confocal microscope.

HDMEC = experiment: Actin remodelling and cell spreading of HDMEC plated on FN (phalloidin staining); type: cell-based, human; conditions: Imatinib-treated
Protocol: as §1, §2, §3

retinal vasculature = experiment: Physiological retinal angiogenesis in the perinatal mouse (IB4/FN labelled P6 retinal flatmounts); type: in vivo
Description: FIG. 7 ABL1 is essential for vessel spouting and branching in the retina. […] Vascular extension from the retinal centre to the vascular front is indicated with red arrows. […] Asterisks indicate statistical significance: **P<0.01.
(C,D) Reduced astrocyte, but not vascular FN deposition in Imatinib-treated retinas. […] Note reduced FN staining of astrocyte processes ahead of the vascular front (A), whilst the vasculature was prominently stained for FN.
Examples of abnormally long and wide sprouts without lateral protrusions or connections are indicated with arrows. (G) Quantification of filopodial bursts per vascular front length as an indicator of tip cell number, and quantification of branchpoints behind the vascular front; vehicle, n=7; P4/5, n=3; P2-5, n=4; ***P<0.001 versus control; ^♯P<0.05 for P4/5 versus P2-5treatment.
All animal procedures were performed in accordance with institutional and UK Home Office guidelines. We used C57/616 wild type mice (Charles River Laboratories), littermate wild type and heterozygous Nrp/-null mutants and mice carrying two floxed conditional null Nrp1 alleles (Nrp1^fl/fl) combined with Pdgfb-iCre-ERT2-Egfp with codon-improved Cre on a C57/616 background. For tamoxifen-induction of CRE-mediated recombination, 0.2 mg of tamoxifen (SIGMA) dissolved in peanut oil to 2 mg/ml was administered via intraperitoneal injection into pups at the indicated times. […] OIR was induced as previously described. Briefly, nursing dams and their pups were maintained at 75±3% O2 in an oxygen supply chamber from P7 to P12; dams were rested in room air for 1 h each day. Dams and pups were returned to room air on P12 and the pups culled on P17 to isolate retinas for immunolabelling; the size of the avascular and neovascular areas was determined with Photoshop CS4 (Adobe Inc.) in images acquired with a SZX16 stereofluorescent microscope (Olympus) equipped with a digital camera (Hamamatsu Photonics Ltd).
as §3

[2] = system: pathological angiogenesis in the retina; conditions: OIR, P17 retina, daily Imatinib after return to normoxia (P13-16), versus vehicle
[3] = P6 retina, Imatinib P2 to P5, versus vehicle
[4] = P6 retina, Imatinib on P4/5 or P2-5, versus vehicle
[5] = P6 retina, Imatinib-treated mice

| SMILES | suppression of proliferation of BCR-ABL-expressing cells in vivo [1] | PXN Y118 phosphorylation (pixel intensities in immunostains and immunoblots) (PXN Y118 phosphorylation) | cell spreading (HDMEC) | stress fibres / cortical actin (phalloidin) (HDMEC) | FN pixel intensity in IB4-positive (vascular) areas (retinal vasculature; [3]) | astrocyte FN deposition ahead of the vascular front (retinal vasculature; [3]) | vascular extension across the retina (retinal vasculature; [3]) | branchpoints behind the vascular front (retinal vasculature; [4]) | tip cells (filopodial bursts at the vascular front) (retinal vasculature; [4]) | filopodia morphology at the vascular front (retinal vasculature; [5]) | interaction of tip cells with microglia (retinal vasculature; [5]) | sprout morphology at the vascular front (retinal vasculature; [5]) | vascular network density (retinal vasculature; P6 retinal flatmounts, Imatinib versus vehicle) | formation of neovascular tufts (NV area) [2] |
| --- | --- | --- | --- | --- | --- | --- | --- | --- | --- | --- | --- | --- | --- | --- |
| O=C(NCCO)c1cccc(-c2cc(Nc3ccc(OC(F)(F)F)cc3)ncn2)c1 [GNF-5, N-(2-Hydroxyethyl)-3-(6-(4(trifluoromethoxy)phenylamino)pyrimidin-4-yl)benzamide] | exhibits in vivo efficacy in suppressing the proliferation |  |  |  |  |  |  |  |  |  |  |  |  |  |
| Cc1ccc(NC(=O)c2ccc(CN3CCN(C)CC3)cc2)cc1Nc1nccc(-c2cccnc2)n1 [Imatinib] |  | significantly reduced | reduced | few stress fibres, but abundant cortical actin | no difference; also recorded: not significantly (ns) changed | significantly reduced | small, but significant reduction; also recorded: Reduced | significant and lmatinib dose-dependent reduction; also recorded: Dose-dependent decrease | significantly fewer | thin, wavy and misoriented | not prevented | longer and wider, with fewer lateral protrusions connecting to neighbouring sprouts | reduced | effectively inhibited; also recorded: reduced |
